# From US6537948B1, “Uracil compounds and use thereof” (Sumitomo Chemical Company, Limited, priority 2000, dated 2003)
# How the values were obtained:
# [1] = test system: ivyleaf morningglory (Ipomoea hederacea); experiment: Test Example 5: foliar treatment of field; type: in vivo; conditions: foliar spray, dosage 16 g/ha, 6 days after application
# Experimental: (§1) A plastic pot having longer side of 27 cm, shorter side of 20 cm and depth of 7.5 cm was filled with soil and then seeded with ivyleaf morningglory (Ipomoea hederacea) and common cocklebur (Xanthium pensylvanicum). Three days after, barnyardgrass (Echinochloa crus-galli) was seeded therein and grown for 7 days in a greenhouse. Then, therein, transplanted were common lambsquarters (Chenopodium album), redroot pigweed and giant foxtail (Setaria faberi) which had been seeded and grown for 14 days in a green house in advance. The test plants were further grown in the greenhouse for 8 days. After then, present compound 7-7 was formulated into an emulsifiable concentrate according to Formulation Example 2 and then diluted to the prescribed amount with water containing a spreading agent and the dilution was uniformly sprayed over the foliage of the test plants with a sprayer at a rate of 1000 liters per hectare. After the application, the test plants were grown in the greenhouse for 6 days, and the herbicidal activity was examined.
# [2] = test system: giant foxtail (Setaria faberi); experiment: Test Example 5: foliar treatment of field; type: in vivo; conditions: foliar spray, dosage 16 g/ha, 6 days after application
# Experimental: as §1
# [3] = test system: common lambsquarters (Chenopodium album); experiment: Test Example 5: foliar treatment of field; type: in vivo; conditions: foliar spray, dosage 16 g/ha, 6 days after application
# Experimental: as §1
# [4] = test system: common cocklebur (Xanthium pensylvanicum); experiment: Test Example 5: foliar treatment of field; type: in vivo; conditions: foliar spray, dosage 16 g/ha, 6 days after application
# Experimental: as §1
# [5] = test system: barnyardgrass (Echinochloa crus-galli); experiment: Test Example 5: foliar treatment of field; type: in vivo; conditions: foliar spray, dosage 16 g/ha, 6 days after application
# Experimental: as §1
# [6] = test system: redroot pigweed; experiment: Test Example 5: foliar treatment of field; type: in vivo, Amaranthus retroflexus; conditions: foliar spray, dosage 16 g/ha, 6 days after application
# Experimental: as §1
smiles,measurement,setting,value
"COC(=O)COc1ncccc1Oc1cc(-n2c(=O)cc(C(F)(F)F)n(C)c2=O)c(F)cc1Cl [Compound 7-7, 3-{2-chloro-4-fluoro-5-[3-methyl-2,6-dioxo-4-(trifluoromethyl)-1,2,3,6-tetrahydropyrimidin-1-yl]phenoxy}-2-(methoxycarbonyl)methoxypyridine]",growth of ivyleaf morningglory (herbicidal activity),[1],completely controlled
same,growth of giant foxtail (herbicidal activity),[2],completely controlled
same,growth of common lambsquarters (herbicidal activity),[3],completely controlled
same,growth of common cocklebur (herbicidal activity),[4],completely controlled
same,growth of barnyardgrass (herbicidal activity),[5],completely controlled
same,melting point,,52.2 °C
same,growth of redroot pigweed (herbicidal activity),[6],completely controlled
